One data set has as its system Alternaria brassicae. Put plainly: In vivo preventive test on Alternaria brassicae (leaf spot on radish), Examples A and R1. As to conditions: for pest or weed control at 500 ppm / pest or weed control at 100 ppm: Alternaria brassicae, 144 h.
The next data set deals with Septoria tritici. Kind of data set: In vivo preventive test on Septoria tritici (leaf spot on wheat), Examples E, Q3 and R5. The conditions noted are these: Zymoseptoria tritici, 576 h, preventive spray, evaluated 24 days after inoculation.
For a further data set, the system named is Puccinia recondita. Kind of data set: In vivo preventive test on Puccinia recondita (brown rust on wheat), Examples C and R3. As to conditions: Puccinia recondita, 264 h, preventive spray, evaluated 11 days after inoculation.
A short description of data set [1]: Measurement of LogP values by HPLC on reversed phase columns (EEC directive 79/831 Annex V.A8). In kind it is physicochemical. The conditions noted are these: method [a]: LC-UV, acidic range, 0.1% formic acid in water and acetonitrile as eluent; Table 1. As to the method:
Measurement of Log P values was performed as outlined above.

The next data set concerns Uromyces appendiculatus. Kind of data set: In vivo preventive test on Uromyces appendiculatus (bean rust), Examples G and R7. As to conditions: 264 h, preventive spray, evaluated 11 days after inoculation.
For the next data set, the system named is Sphaerotheca fuliginea. Put plainly: In vivo preventive test on Sphaerotheca fuliginea (powdery mildew on cucurbits), Examples F and R6. The conditions noted are these: Podosphaera fuliginea, 360 h, preventive spray, evaluated 15 days after inoculation.
The next data set relates to Phakopsora pachyrhizi. Put plainly: In vivo preventive Phakopsora test (soybeans), Example I. As to conditions: 168 h, 100 ppm of active ingredient, preventive spray, evaluated 7 days after inoculation, read-out: efficacy.
The test system of the next data set is Botrytis cinerea. Put plainly: In vivo preventive test on Botrytis cinerea (grey mould) on gherkin, Examples B, Q1 and R2. As to conditions: Botrytis cinerea, 500 ppm of active ingredient, preventive spray, evaluated 4 to 5 days after inoculation, read-out: efficacy.
Another data set concerns Alternaria solani. Put plainly: In vivo preventive Alternaria test (tomatoes), Example H. As to conditions: 72 h, 100 ppm of active ingredient, preventive spray, evaluated 3 days after inoculation, read-out: efficacy.
The next data set deals with Pyrenophora teres. Put plainly: In vivo preventive test on Pyrenophora teres (net blotch on barley), Examples D, Q2 and R4. The conditions noted are these: Pyrenophora teres, 336 h, 500 ppm of active ingredient, preventive spray, evaluated 14 days after inoculation, read-out: efficacy.
In data set [2] the test system is Blumeria graminis fsp. hordei. Kind of data set: In vivo preventive Blumeria test (barley), Example K. As to conditions: 168 h, 500 ppm of active ingredient, preventive spray, evaluated 7 days after inoculation, read-out: efficacy. The text has this:
After the spray coating has been dried, the plants are dusted with spores of Blumeria graminis fsp. hordei.

[3] abbreviates: 500 ppm of active ingredient, wheat, read-out: efficacy.
The mark [4] stands for this setting: 500 ppm of active ingredient, bean, read-out: efficacy.
Where [5] appears, read: 500 ppm of active ingredient, gherkin, read-out: efficacy.
The mark [6] stands for this setting: 500 ppm of active ingredient, preventive spray, evaluated 6 days after inoculation, read-out: efficacy.
[7] abbreviates: Example R1, rate of application 100 ppm, read-out: Efficacy in %.
Setting [8] is: Example R1, rate of application 500 ppm, read-out: Efficacy in %.

Molecules are shown by their SMILES. Read-outs that look alike come from different tables or passages of the source.

Consider `OC(Cc1ccc(Cl)cc1F)(Cn1ccc(Cl)c1)C1(Cl)CC1` (racemic) [reference compound], for which the Efficacy in % in the data set with Alternaria brassicae (Example R1, rate of application 100 ppm) came to 0%; in the data set on Alternaria brassicae (Example R1, rate of application 500 ppm), 0%.

Consider `Cc1cncn1CC(O)(Cc1ccccc1Cl)C1(Cl)CC1` (centres unmarked) [Example I-03], for which the pest or weed control at 500 ppm in the data set with Septoria tritici (setting [3]) was 90 to 100%; with Septoria tritici (Example R5, wheat, 500 ppm, read-out: Efficacy in %) it was 100%; in the data set on Puccinia recondita (setting [3]), 80 to 89%; with Puccinia recondita (Example R3, wheat, 500 ppm, read-out: Efficacy in %), 86%; in the data set on Uromyces appendiculatus (setting [4]), 90 to 100%; in the data set with Uromyces appendiculatus (Example R7, bean, 500 ppm, read-out: Efficacy in %), 100%. Moreover, the pest or weed control at 500 ppm in the data set on Sphaerotheca fuliginea (setting [5]) was 90 to 100%; with Sphaerotheca fuliginea (Example R6, gherkin, 500 ppm, read-out: Efficacy in %) it was 100%; in the data set on Alternaria brassicae (setting [6]), 80 to 89%; in the data set with Alternaria brassicae (setting [8]), 83%. Further, the pest or weed control at 100 ppm is 83% with Septoria tritici (Example R5, wheat, 100 ppm, read-out: Efficacy in %); 86% in the data set with Puccinia recondita (Example R3, wheat, 100 ppm, read-out: Efficacy in %); 81% with Uromyces appendiculatus (Example R7, bean, 100 ppm, read-out: Efficacy in %); 85% in the data set with Sphaerotheca fuliginea (Example R6, gherkin, 100 ppm, read-out: Efficacy in %); 0% in the data set with Alternaria brassicae (setting [7]). The compound also had a chromatographic logP in data set [1] of 1.72.

Take `OC(Cn1cncc1Cl)(C(F)c1ccccc1Cl)C1(Cl)CC1` (centres unmarked) [Example I-05]: the figures for the pest or weed control at 100 ppm in the data set on Phakopsora pachyrhizi and in the data set on Alternaria solani were 90 to 100% and 70 to 79%, respectively. The pest or weed control at 500 ppm with Septoria tritici (setting [3]) lay in the range of 80 to 89%; in the data set with Puccinia recondita (setting [3]), 80 to 89%; in the data set with Botrytis cinerea, 90 to 100%; with Uromyces appendiculatus (setting [4]), 90 to 100%; with Sphaerotheca fuliginea (setting [5]), 90 to 100%. Further, the chromatographic logP in data set [1] is 2.17.

`Cc1cncn1CC(O)(C(F)c1ccccc1Cl)C1(Cl)CC1` (centres unmarked) [Example I-13]: the pest or weed control at 500 ppm with Septoria tritici (setting [3]) fell in the range of 90 to 100%; in the data set with Puccinia recondita (setting [3]), 80 to 89%; with Botrytis cinerea it was 80 to 89%; with Sphaerotheca fuliginea (setting [5]), 90 to 100%; with Alternaria brassicae (setting [6]), 70 to 79%; with Pyrenophora teres, 80 to 89%. The same compound returned a chromatographic logP in data set [1] of 1.75.

Turning to `OC(Cc1ccccc1Cl)(Cn1cncc1C(F)(F)F)C1(Cl)CC1` (centres unmarked) [Example I-15], the pest or weed control at 500 ppm with Septoria tritici (setting [3]) was in the range of 90 to 100%; with Puccinia recondita (setting [3]), 80 to 89%; with Botrytis cinerea, 70 to 79%; in the data set with Uromyces appendiculatus (setting [4]), 90 to 100%; in the data set with Sphaerotheca fuliginea (setting [5]) it was 90 to 100%; in the data set with Alternaria brassicae (setting [6]), 90 to 100%. Besides, the pest or weed control at 500 ppm with Pyrenophora teres lay within 90 to 100%. In data set [1], this compound returned a chromatographic logP of 3.63.

Regarding `CC(=O)c1cncn1CC(O)(Cc1ccccc1Cl)C1(Cl)CC1` (centres unmarked) [Example I-19], the pest or weed control at 500 ppm fell in the range of 90 to 100% in the data set on Septoria tritici (setting [3]); 90 to 100% with Puccinia recondita (setting [3]); 90 to 100% in the data set on Sphaerotheca fuliginea (setting [5]); 80 to 89% in the data set with Alternaria brassicae (setting [6]); 80 to 89% with Pyrenophora teres.

In the case of `OC(Cc1ccccc1Cl)(Cn1cncc1-c1cccs1)C1(Cl)CC1` (centres unmarked) [Example I-20], the pest or weed control at 500 ppm with Septoria tritici (setting [3]) fell in the range of 80 to 89%; in the data set on Puccinia recondita (setting [3]) it was 80 to 89%; in the data set with Uromyces appendiculatus (setting [4]) it was 90 to 100%; in the data set on Sphaerotheca fuliginea (setting [5]) it was 90 to 100%; in the data set on Alternaria brassicae (setting [6]), 80 to 89%.

Regarding `OC(Cn1cncc1Br)(C(F)c1ccccc1Cl)C1(Cl)CC1` (centres unmarked) [Example I-23], in the data set on Phakopsora pachyrhizi, the pest or weed control at 100 ppm fell in the range of 90 to 100%. Also, the pest or weed control at 500 ppm with Septoria tritici (setting [3]) was in the range of 90 to 100%; in the data set with Puccinia recondita (setting [3]), 90 to 100%; in the data set on Uromyces appendiculatus (setting [4]) it was 90 to 100%; in the data set with Sphaerotheca fuliginea (setting [5]), 90 to 100%; in the data set with Alternaria brassicae (setting [6]), 80 to 89%; in the data set with Pyrenophora teres, 80 to 89%. Besides, the chromatographic logP in [1] came to 2.32.

For the compound `Cc1ccccc1CC(O)(Cn1cncc1C#N)C1(Cl)CC1` (centres unmarked) [Example I-54], the pest or weed control at 500 ppm in the data set with Septoria tritici (setting [3]) lay in the range of 90 to 100%; in the data set with Puccinia recondita (setting [3]), 80 to 89%; with Botrytis cinerea, 90 to 100%; in the data set on Uromyces appendiculatus (setting [4]), 90 to 100%; with Sphaerotheca fuliginea (setting [5]) it was 90 to 100%; in the data set on Alternaria brassicae (setting [6]) it was 80 to 89%. Also, in the data set on Pyrenophora teres, the pest or weed control at 500 ppm is 80 to 89%.

As to `COc1ccccc1CC(O)(Cn1cncc1C#N)C1(Cl)CC1` (centres unmarked) [Example I-55], the pest or weed control at 500 ppm fell in the range of 90 to 100% in the data set on Septoria tritici (setting [3]); 90 to 100% with Puccinia recondita (setting [3]); 90 to 100% in the data set on Botrytis cinerea; 90 to 100% in the data set with Uromyces appendiculatus (setting [4]); 90 to 100% in the data set on Sphaerotheca fuliginea (setting [5]); 80 to 89% with Alternaria brassicae (setting [6]). Besides, the pest or weed control at 500 ppm in the data set with Pyrenophora teres lay within 80 to 89%. This compound had a chromatographic logP in data set [1] of 2.93.

With `N#Cc1cncn1CC(O)(Cc1ccnc(Cl)c1)C1(Cl)CC1` (centres unmarked) [Example I-62], the pest or weed control at 500 ppm (in the data set with Septoria tritici (setting [3]); in data set [2]; in the data set with Puccinia recondita (setting [3]); in the data set on Uromyces appendiculatus (setting [4]); in the data set with Sphaerotheca fuliginea (setting [5]); with Pyrenophora teres) was 90 to 100% each time. This compound also had a chromatographic logP in data set [1] of 2.04.

Consider `OC(Cc1cccc(Cl)c1Cl)(Cn1cncc1Cl)C1(Cl)CC1` (centres unmarked) [Example I-66], for which the pest or weed control at 500 ppm with Septoria tritici (setting [3]) lay within 90 to 100%; with Puccinia recondita (setting [3]) it was 90 to 100%; in the data set with Botrytis cinerea, 70 to 79%; in the data set on Uromyces appendiculatus (setting [4]), 90 to 100%; in the data set with Sphaerotheca fuliginea (setting [5]), 90 to 100%; in the data set on Alternaria brassicae (setting [6]) it was 70 to 79%. The pest or weed control at 500 ppm with Pyrenophora teres was in the range of 90 to 100%. The chromatographic logP in data set [1] worked out at 2.69.

In the case of `OC(Cc1ccnc(Cl)c1)(Cn1cncc1Cl)C1(Cl)CC1` (centres unmarked) [Example I-75], the pest or weed control at 500 ppm lay within 90 to 100% in the data set on Septoria tritici (setting [3]); 90 to 100% in data set [2]; 70 to 79% in the data set with Puccinia recondita (setting [3]); 80 to 89% in the data set on Botrytis cinerea; 90 to 100% with Uromyces appendiculatus (setting [4]); 90 to 100% in the data set on Sphaerotheca fuliginea (setting [5]). In addition, the pest or weed control at 500 ppm in the data set on Pyrenophora teres was 80 to 89%. The same compound displayed a chromatographic logP in [1] of 1.62.

As to `N#Cc1cncn1CC(O)(Cc1ccccc1Cl)C1CC1` (centres unmarked) [Example I-80], the pest or weed control at 500 ppm is 90 to 100% with Septoria tritici (setting [3]); 90 to 100% in data set [2]; 80 to 89% in the data set with Puccinia recondita (setting [3]); 90 to 100% in the data set with Uromyces appendiculatus (setting [4]); 90 to 100% with Sphaerotheca fuliginea (setting [5]); 80 to 89% in the data set on Pyrenophora teres. Also, the chromatographic logP in data set [1] worked out at 2.57.

For the compound `N#Cc1cncn1CC(O)(Cc1ccccc1F)C1CC1` (centres unmarked) [Example I-136], the pest or weed control at 500 ppm (in the data set on Septoria tritici (setting [3]); in data set [2]; with Puccinia recondita (setting [3]); with Uromyces appendiculatus (setting [4]); in the data set with Sphaerotheca fuliginea (setting [5])) was 90 to 100% in each case.

For the compound `OC(Cc1ccccc1Cl)(Cn1cnc(Br)c1)C1(Cl)CC1` (centres unmarked) [drawing 59, reference compound], the pest or weed control at 100 ppm in the data set with Alternaria brassicae (setting [7]) worked out at 0%. Also, the pest or weed control at 500 ppm in the data set with Alternaria brassicae (setting [8]) is 40%.

Take `Cc1cn(CC(O)(Cc2ccccc2Cl)C2(Cl)CC2)cn1` (centres unmarked) [drawing 61, reference compound]: the pest or weed control at 100 ppm with Alternaria brassicae (setting [7]) was found to be 0%. Further, the pest or weed control at 500 ppm in the data set with Alternaria brassicae (setting [8]) was 0%.

With `OC(Cc1ccccc1F)(Cn1cnc(Cl)c1)C1(Cl)CC1` (centres unmarked) [drawing 63, reference compound], the pest or weed control at 100 ppm with Alternaria brassicae (setting [7]) is 0%. For the same compound, in the data set on Alternaria brassicae (setting [8]), the pest or weed control at 500 ppm stood at 0%.

In the case of `OC(Cc1ccccc1F)(Cn1ccnc1Cl)C1(Cl)CC1` (centres unmarked) [drawing 64, reference compound], in the data set with Alternaria brassicae (setting [7]), the pest or weed control at 100 ppm amounted to 0%. Moreover, in the data set on Alternaria brassicae (setting [8]), the pest or weed control at 500 ppm amounted to 0%.

For `N#Cc1cn(CC(O)(Cc2ccccc2F)C2(Cl)CC2)cn1` (centres unmarked) [drawing 68, reference compound], the pest or weed control at 100 ppm in the data set on Alternaria brassicae (setting [7]) is 0%. Besides, the pest or weed control at 500 ppm in the data set on Alternaria brassicae (setting [8]) was 0%.
